Laboratory results reported in ChEMBL document CHEMBL3797071, “Repurposing strategies for tropical disease drug discovery” (Bioorg Med Chem Lett, 2016).

Legend:
[1] = test system: Trypanosoma brucei; assay: Antiparasitic activity against Trypanosoma brucei […]; format: functional, organism-based
[2] = test system: L929; assay: Cytotoxicity against mouse L929 cells; format: cell-based
[3] = Inhibition of Trypanosoma brucei LeuRS assessed as formation of stable tRNA(Leu)-compound adduct in editing site of enzyme
[4] = test system: Brugia pahangi; assay: Antifilarial activity against Brugia pahangi infected in gerbils assessed as reduction in worm burden at 5 mg/kg, bid in weekdays for 28 days; format: functional, organism-based; set-up: scale not given: the % may be the effect or the level left
[5] = test system: Brugia pahangi; assay: Antifilarial activity against Brugia pahangi infected in gerbils assessed as reduction in worm burden at 5 mg/kg, sid in weekends for 28 days; format: functional, organism-based; set-up: scale not given: the % may be the effect or the level left
[6] = Selectivity ratio of IC50 for Onchocerca ochengi to IC50 for microfilariae of Loa loa; format: functional
[7] = test system: Leishmania chagasi; assay: Antiparasitic activity against amastigote stage of Leishmania chagasi MHOM/BR/1972/LD infected in golden hamster assessed as reduction in parasite load at 20 mg/kg, ip administered for 15 days measured after 4 weeks by limiting dillution method; format: functional; set-up: scale not given: the % may be the effect or the level left
[8] = test system: Leishmania braziliensis; assay: Antiparasitic activity against promastigote stage of Leishmania braziliensis MHOM/BR/2001/BA788 infected in BALB/c mouse assessed as reduction in parasite load at 20 mg/kg, ip administered for 15 days measured after 6 weeks by limiting dillution method; format: functional; set-up: scale not given: the % may be the effect or the level left
[9] = test system: Leishmania chagasi; assay: Antiparasitic activity against amastigote stage of Leishmania chagasi MHOM/BR/1972/LD infected in golden hamster assessed as golden hamster survival rate at 20 mg/kg, ip after 18 weeks by limiting dillution method; format: functional

| Compound | EC50 [1] [µM] | EC50 [2] [µM] | IC50 [3] [µM] | other results |
| --- | --- | --- | --- | --- |
| CCOC(=O)COc1ccc2c(c1)B(O)OC2 | 0.72 | > 40 | 3.5 |  |
| AURANOFIN |  |  |  | Activity [4]: 58%; Activity [5]: 91%; Ratio IC50 [6]: 43 |
| CC/C(=C(\c1ccccc1)c1ccc(OCCN(C)C)cc1)c1ccccc1 [TAMOXIFEN] |  |  |  | Activity [7]: 95%; Activity [8]: 95%; Activity [9]: 100% |
| OB1OCc2cc(F)ccc21 [TAVABOROLE] |  |  | 22.1 |  |
| CC(=O)C(C)(C)Oc1ccc2c(c1)B(O)OC2 | 0.37 | > 40 | 5 |  |
